Reference: patent US11278550B2, “Compositions and methods for the treatment of Prader-Willi syndrome” (Duke University, priority 2016, dated 2022)
Like-named read-outs stand apart in the source and are kept apart here.

Tests used:
maternal Snrpn-EGFP MEFs = assay: High content screening / concentration response of Snrpn-EGFP unsilencing; format: cell-based, mouse; conditions: for activation of S-EGFP: mS-EGFP/p+ MEFs; for EC50: read-out: half-maximal effective concentration (EC50), Snrpn-EGFP unsilencing
Protocol: High content screenings of small molecules were performed as described in Huang, et al. Nature 481, 185-189 (2012). HCS comprises a 384-well high-content screen using primary mouse embryonic fibroblasts (MEFs) from m^S-EGFP/p^+, and searched for drug-like molecules that could unsilence the maternal S-EFGP allele. […] To perform the screen, primary MEFs were isolated from E12.5-14.5 embryos of m^S-EGFP/p^+ and cultured for 7 days in Dulbecco's modified Eagle's media supplemented with 10% fetal bovine serum, 100 Units/mL penicillin and 100 μg/mL streptomycin, at 37° C. and 5% CO2. One day before treatment with small molecules, 5,000 cells per well were plated onto 384-well plates. The cells were then treated with compounds (10 μM for 72 hours) from multiple small molecule libraries (FIG. 1f and FIG. 2). In total, 9,157 small molecules were screened in quadruplicate, normalizing values to vehicle-treatment (0.2% DMSO) (Table 1). The unsilencing of Snrpn-EGFP was determined three days after drug treatment. The immunofluorescence-processed fibroblasts were imaged for Hoechst and Alexa Fluor 488 fluorescence using a BD Pathway 855 high content imaging microscope. Antibody-enhanced Snrpn-EGPF fluorescence intensity was determined in drug-treated cells individually and normalized to cells treated with vehicle control. In order to identify potentially active compounds, an arbitrary cutoff of 125% was used where 100% indicates basal fluorescence in the vehicle-treated MEFs. Analysis was performed using Cell Profiler with custom macro and algorithms. Potential active drugs were defined as the increase in drug-mediated EGFP fluorescence consistently observed across quadruplicate wells and minimal or no cytotoxicity measured by Hoechst-stained nuclear structure (and the changes in total number of cells). After initial validation of all potential active drugs (e.g., to determine whether active compounds show inherent fluorescence, the wild-type fibroblasts were also treated), only effective hit compounds further validated in dose-response tests to determine relative efficacy (Emax) and potency (EC50). The dose-response results were analyzed by using Graphpad Prism (Graphpad Software). The calculated EC50 values (potencies) and estimated Emax (efficacy, Y-value top plateau) enabled comparative analyses of the relative potency and efficacy of the identified compounds.
Three days after drug treatment, the cells were fixed at 4% paraformaldehyde at room temperature for 10 min, followed by rinsing with 1× PBS. The cells were permeabilized with 0.5% Triton X-100 in 1× PBS at room temperature for 10 min, followed by blocking with 5% normal goat serum in 0.1% Triton X-100 in 1× PBS at room temperature for 30 minutes. Primary rabbit anti-GFP antibody (1:1000, Novus Biologicals cat. no. NB100-1770) was incubated at 4° C. overnight. The next day, the cells were rinsed with 1× PBS and incubated with goat anti-rabbit Alexa Fluor 488 (Invitrogen cat. no. A-11008) and Hoechst at room temperature. One hour after incubation, the cells were rinsed with 1× PBS and imaged for Hoechst and Alexa Fluor 488 fluorescence using a BD Pathway 855 high content imaging microscope.
It is not feasible to design a screen for noncoding RNA. Alternatively, SNRPN/Snprn is paternally expressed but maternally silenced in all human and mouse tissues. The allele-specific expression of human SNRPN is regulated by the PWS-IC, which also controls the expression of host transcripts for SnoRNAs, including the SNORD116 cluster between SNRPN and UBE3A. see Le Meur, E. et al., Dev. Biol. 286, 587-600 (2005). Thus, the Snrpn-EGFP fusion protein (hereafter S-EGFP) was used as a marker for high content screening (HCS). It was determined that small molecules that can unsilence S-EGFP would also be effective in reactivating the host transcript of SNORD116. […]

H3K9me2 = conditions: cited from earlier work
human PWS fibroblasts [1] = assay: RT-PCR of 15q11-q13 genes in human PWS fibroblasts; format: cell-based; conditions: for SNORD116 and its putative host transcript (116HG): 4 μM, 72 hours
Protocol: For testing long lasting drug effects, the 6 week-old m^S-EGFP/p^+ mice were treated daily by i.p. injection for seven consecutive days.
For reverse-transcription PCR (RT-PCR) and quantitative real time RT-PCR (qRT-PCR), first total RNA was extracted from the fibroblasts and/or collected tissues (liver and brain) using Direct-zol RNA Miniprep kit (Zymo Research cat. no. R2070). 2 μg of total RNA was directly used for single strand cDNA synthesis with Superscript III reverse transcriptase (Invitrogen cat. no. 18080-093) according to the manufacturer's protocols. The conditions for RT-PCR were 95° C./5 min, 35-40 cycles of 95° C./30 sec, 56-60° C./60 sec, 72° C./60 sec. Quantification of target gene expression was performed in a LightCycler480 instrument (Roche) using SsoAdvanced Universal SYBR green Supermix (Biorad cat. no. 172-5271) according to the manufacturer's instructions. See Table 4 for primer sequences and conditions used for experiments for RT-PCR, qRT-PCR, bisulfite genomic sequencing, ChIP-qPCR, and chromatin accessibility assay.
FIG. 4a represents a schematic of genomic organization at the human chromosome 15q11-q13 region imprinting center. Because imprinting of SNPRN is known to be ubiquitous, the G9a-inhibitor effect on its activation is expected to be representative of all tissues and cell types.

[2] = system: human PWS fibroblast cells; assay: Cell viability (CellTox Green Cytotoxicity Assay); format: cell-based; conditions: 1-4 μM, 72 hours
Protocol: Cell viability was measured by fluorescence using CellTox™ Green Cytotoxicity Assay (Promega, cat. no. G8741) according to the manufacturer's instructions.

human PWS fibroblasts [3] = assay: Chromatin immunoprecipitation (ChIP-qPCR) of H3K9me2/H3K9me3; format: cell-based
Protocol: Histone methylations on the SNRPN locus in human fibroblasts were analyzed by chromatin immunoprecipitation assay (ChIP) using the protocol as previously reported (see Fulmer-Smentek et al., Human molecular genetics 10, 645-652 (2001)). ChIP assay was performed using ChIP-IT Express magnetic kit (Active Motif) according to the manufacturer's instructions with modification for the fixation and reverse-crosslinking steps. Briefly, native chromatin was prepared without fixation and enzymatic digestions to average 150-500 bp sized chromatin. 20 μg of chromatin was added to the specific antibodies (2 μg) or species control isotype antibodies for each immunoprecipitation reaction. The antibody-chromatin complexes were bound to protein G magnetic beads for recovering chromatin immunoprecipitates. RNase- and proteinase K-treated DNA was purified using PCR purification columns (Promega). DNA recovery was quantified by real time PCR performed on the LightCycler480 instrument (Roche) using SsoAdvanced Universal SYBR green Supermix (Biorad). Antibodies were anti-rabbit acetylated H3 (Millipore 06-599), anti-mouse monoclonal Histone H3 dimethyl K9 (Abcam 1220) and Histone H3 trimethyl K9 (Millipore, 07-442) antibodies. qPCR reactions were performed with the following cycling parameters: at 95° C./5 min followed by 40 cycles of 95° C./30 sec, 60° C./60 sec. Data was normalized to the total input.

EC50 (maternal Snrpn-EGFP MEFs; maternal Snrpn-EGFP MEFs, 72 hours)	Compound	activation of S-EGFP (maternal Snrpn-EGFP MEFs)	reduction of the levels of H3K9me2 (H3K9me2; 250 nM, variety of cell lines)	SNORD116 and its putative host transcript (116HG) (human PWS fibroblasts [1])	activation of SNRPN and SNORD116 transcripts (human PWS fibroblasts [1]; 1-4 μM)	cytotoxicity [2]	H3K9me2 in the region associated with NDN (human PWS fibroblasts [3])	H3K9me2 enriched at the PWS-IC after treatment (human PWS fibroblasts [3]; ChIP-qPCR, reduction from 17-fold untreated, p<0.05)	H3K9me3 at host transcript of SNORD116 after treatment (human PWS fibroblasts [3]; ChIP-qPCR, reduction from 24-fold untreated, p<0.05)	H3K9me2 at host transcript of SNORD116 after treatment (human PWS fibroblasts [3]; ChIP-qPCR, reduction from 122-fold untreated, p<0.05)	level of H3K9me2 (and H3K9me3) in the PWS-IC (human PWS fibroblasts [3]; in words)	EC50 (maternal Snrpn-EGFP MEFs; Mus musculus, 72 h)	potency for H3K9me2 mark (H3K9me2; several cell lines)
1600 nM	COc1cc2c(NC3CCN(C(C)C)CC3)nc(C3CCCCC3)nc2cc1OCCCN1CCCC1 [UNC0638]	active	60-80%	effective	effectively activated	minimal cytotoxicity	reduced	3 fold	2 fold	4 fold	drastically reduced	–	–
–	COc1cc2c(NC3CCN(C(C)C)CC3)nc(N3CCC(F)(F)CC3)nc2cc1OCCCN1CCCC1 [UNC0642]	active	–	effective	–	–	–	–	–	–	–	2700 nM	high potency
